Assay results published in patent US8273754B2, “Substituted 1H-pyrazolo[3,4-D]pyrimidine-6-amine compounds” (ArQule, Inc., priority 2008, dated 2012).
Read-outs that look alike come from different tables or passages of the source.

Experiments:
FGFR2 (N549H) = biological target: T1, FGFR2 (N549H) (Homo sapiens, UniProt P21802, N549H); assay: fluorescent ELISA assay for inhibitors of FGFR2 kinase; type: biochemical; details: Pyk2 peptide substrate, 60 minutes
T1 construct: purchased Millipore 14-742
Protocol: The enzymatic assays described herein are conducted according to the following procedures from commercially available reagents. In one non-limiting example, a fluorescent ELISA assay is used to identify and characterize inhibitors of FGFR2 kinase as described herein. This heterogeneous assay utilizes a biotinylated peptide with a tyrosine motif as a substrate and an anti-phospho-tyrosine antibody to measure phosphorylation of the substrate. The reaction is initiated by adding the test compound, 37 μM Pyk2 substrate (Midwest Biotech, Cat. #MBT2383), 12.5 μM ATP (Roche, Cat. #11 140 965 001) and 0.5 μM FGFR2 enzyme (Millipore, Cat. #14-742) sequentially to a non-binding polypropylene V-well plate. All reagents are in an assay buffer consisting of: 50 mM Tris-HCL, 0.02 mg/ml BSA, 10 mM MgCl2, 0.1 mM Na3VO4, 1 mM EGTA, 75 μM ATP, 0.01% NP-40, 2 mM DTT and 10% glycerol. The reaction is incubated for 60 minutes. As the reaction proceeds, FGFR2 phosphorylates tyrosines in the peptide. The reaction mixture is then moved to a blocked streptavidin-coated Nunc Maxisorb plate (coated with 100 ng streptavidin from Pierce (Cat. #15-124) per well), allowing for the capture of the biotinylated peptide. Peptides are captured for 30 minutes at room temperature, the phosphorylation of peptides continues during this phase. The reaction is stopped by washing the streptavidin-coated plate 6 times with TBST. Phosphorylated peptide is detected by adding anti-phospho-tyrosine antibody (Cell Signaling, Cat. #9411, diluted 1:3000) to the streptavidin-coated plate. Unbound anti-phospho-tyrosine antibody is removed by washing the streptavidin-coated plate 6 times with TBST. Secondary detection is performed using alkaline phosphatase tagged goat anti-mouse antibody (Pierce, Cat. #31320, diluted 1:4000) for one hour. Unbound secondary antibody is removed by washing the streptavidin-coated plate 6 times with TBST. The fluorescent readout is initiated by adding to the streptavidin-coated plate Promega Attophos substrate (Promega, Cat. #S1000, dilution=6 mg/10 ml), which, when dephosphorylated by alkaline phosphatase, emits a fluorescent signal of 595 nm in wavelength when excited by a signal of 400 nm in wavelength. The reading of the 595 nm signal is done on the Perkin Elmer Envision system. Compounds which prevent FGFR2 from phosphorylating the peptide result in a lower fluorescent signal. The 595 nm fluorescent signal is directly proportional to the activity of FGFR2. Thus, the inhibition of FGFR2 by compounds is monitored by the decrease in the 595 nm fluorescent signal.

cancer cells = assay: MTS cell growth inhibition assay (72 hours); type: cell-based
Method in brief: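 Growth inhibition read as formazan absorbance at 492 nm after 4 h MTS/PMS, following 72 h compound exposure at 37 °C in 1% FBS DMEM (cells pre-seeded 18 h). IC50 = 50% absorbance reduction; inhibition graded in bands.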

[1] = Homo sapiens, DLD-1, 72 h, DLD-1 cells, read-out: DLD-1 MTS 72 hr at 10 μM
[2] = Homo sapiens, KATO III, 72 h, KATO III cells, read-out: KATO III MTS 72 hr at 10 μM
[3] = Homo sapiens, MDA-MB-231, 72 h, MDA-MB-231 cells, read-out: MDA-MB-231 MTS 72 hr at 10 μM
[4] = Homo sapiens, NCI-H1299, 72 h, NCI-H1299 cells, read-out: NCI-H1299 MTS 72 hr at 10 μM
[5] = PaCa-2, 72 h, PACA-2 cells, read-out: PACA-2 MTS 72 hr at 10 μM

T1 sequence (P21802 22-821 N549H): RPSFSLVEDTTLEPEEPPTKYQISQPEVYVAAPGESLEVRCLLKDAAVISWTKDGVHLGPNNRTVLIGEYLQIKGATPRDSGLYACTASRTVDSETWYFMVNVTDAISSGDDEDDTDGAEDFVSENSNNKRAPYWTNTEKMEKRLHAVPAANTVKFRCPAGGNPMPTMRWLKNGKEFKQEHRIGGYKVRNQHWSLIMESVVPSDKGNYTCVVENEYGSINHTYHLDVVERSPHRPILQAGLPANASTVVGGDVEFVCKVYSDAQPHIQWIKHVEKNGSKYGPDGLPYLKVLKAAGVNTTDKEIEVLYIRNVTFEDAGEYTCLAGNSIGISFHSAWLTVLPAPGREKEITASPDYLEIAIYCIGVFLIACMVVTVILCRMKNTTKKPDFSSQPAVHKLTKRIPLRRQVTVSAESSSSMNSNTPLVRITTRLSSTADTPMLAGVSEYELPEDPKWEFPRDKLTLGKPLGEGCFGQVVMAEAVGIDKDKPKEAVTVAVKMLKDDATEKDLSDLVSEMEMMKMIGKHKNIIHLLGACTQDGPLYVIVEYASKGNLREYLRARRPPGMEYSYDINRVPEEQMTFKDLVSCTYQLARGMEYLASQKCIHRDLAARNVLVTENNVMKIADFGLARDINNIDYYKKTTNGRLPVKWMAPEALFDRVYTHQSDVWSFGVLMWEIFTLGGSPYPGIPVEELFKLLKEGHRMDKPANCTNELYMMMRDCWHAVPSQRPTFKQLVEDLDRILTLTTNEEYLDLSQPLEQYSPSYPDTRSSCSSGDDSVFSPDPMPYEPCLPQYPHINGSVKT

IC50 (FGFR2 (N549H))	Compound	inhibition at 10 µM (cancer cells; [1])	inhibition at 10 µM (cancer cells; [2])	inhibition at 10 µM (cancer cells; [3])	inhibition at 10 µM (cancer cells; [4])	inhibition at 10 µM (cancer cells; [5])
0.38 µM	Nc1nc(NC2Cc3ccccc3N(S(=O)(=O)c3ccccc3F)C2)c2cn[nH]c2n1 (stereo not drawn) [Compound 45, N4-(1-(2-fluorophenylsulfonyl)-1,2,3,4-tetrahydroquinolin-3-yl)-1H-pyrazolo[3,4-d]pyrimidine-4,6-diamine]	< 50%	< 50%	< 50%	< 50%	< 50%
15.3 µM	Nc1nc(NC2Cc3ccccc3N(S(=O)(=O)c3cccc4nsnc34)C2)c2cn[nH]c2n1 (stereo not drawn) [Compound 17, N4-(1-(benzo[c][1,2,5]thiadiazol-4-ylsulfonyl)-1,2,3,4-tetrahydroquinolin-3-yl)-1H-pyrazolo[3,4-d]pyrimidine-4,6-diamine]	< 50%	< 50%	< 50%	< 50%	< 50%
3.85 µM	Nc1nc(NC2Cc3ccccc3N(S(=O)(=O)c3csc4ccccc34)C2)c2cn[nH]c2n1 (stereo not drawn) [Compound 51, N4-(1-(benzo[b]thiophen-3-ylsulfonyl)-1,2,3,4-tetrahydroquinolin-3-yl)-1H-pyrazolo[3,4-d]pyrimidine-4,6-diamine]	< 50%	50 to 79%	< 50%	< 50%	50 to 79%
0.39 µM	Nc1nc(NC2Cc3ccccc3N(S(=O)(=O)c3ccc(F)cc3F)C2)c2cn[nH]c2n1 (stereo not drawn) [Compound 47, N4-(1-(2,4-difluorophenylsulfonyl)-1,2,3,4-tetrahydroquinolin-3-yl)-1H-pyrazolo[3,4-d]pyrimidine-4,6-diamine]	< 50%	< 50%	< 50%	< 50%	< 50%
15.9 µM	COc1ccc(S(=O)(=O)N2CC(Nc3nc(N)nc4[nH]ncc34)Cc3ccccc32)cc1 (stereo not drawn) [Compound 42, N4-(1-(4-methoxyphenylsulfonyl)-1,2,3,4-tetrahydroquinolin-3-yl)-1H-pyrazolo[3,4-d]pyrimidine-4,6-diamine]	< 50%	50 to 79%	< 50%	< 50%	< 50%
0.03 µM	Nc1nc(NC2Cc3ccccc3N(S(=O)(=O)c3cccc(Cl)c3)C2)c2cn[nH]c2n1 (stereo not drawn) [Compound 26, N4-(1-(3-chlorophenylsulfonyl)-1,2,3,4-tetrahydroquinolin-3-yl)-1H-pyrazolo[3,4-d]pyrimidine-4,6-diamine]	> 79%	> 79%	50 to 79%	< 50%	> 79%
1.67 µM	Cc1cccc(CN2CC(Nc3nc(N)nc4[nH]ncc34)Cc3ccccc32)c1 (stereo not drawn) [Compound 122, N4-[1-(3-methylbenzyl)-1,2,3,4-tetrahydroquinolin-3-yl]-1H-pyrazolo[3,4-d]pyrimidine-4,6-diamine]	< 50%	50 to 79%	< 50%	< 50%	50 to 79%
> 30 µM	Cc1ccc(-c2ccc(S(=O)(=O)N3CC(Nc4nc(N)nc5[nH]ncc45)Cc4ccccc43)cc2)cc1 (stereo not drawn) [Compound 50, N4-(1-(4′-methylbiphenyl-4-ylsulfonyl)-1,2,3,4-tetrahydroquinolin-3-yl)-1H-pyrazolo[3,4-d]pyrimidine-4,6-diamine]	50 to 79%	50 to 79%	< 50%	< 50%	50 to 79%
> 30 µM	COc1ccc(CN2CC(Nc3nc(N)nc4[nH]ncc34)Cc3ccccc32)cc1OC (stereo not drawn) [Compound 123, N4-[1-(3,4-dimethoxybenzyl)-1,2,3,4-tetrahydroquinolin-3-yl]-1H-pyrazolo[3,4-d]pyrimidine-4,6-diamine]	< 50%	< 50%	< 50%	< 50%	< 50%
17.2 µM	CC(=O)c1ccc(S(=O)(=O)N2CC(Nc3nc(N)nc4[nH]ncc34)Cc3ccccc32)cc1 (stereo not drawn) [Compound 48, 1-(4-(3-(6-amino-1H-pyrazolo[3,4-d]pyrimidin-4-ylamino)-3,4-dihydroquinolin-1(2H)-ylsulfonyl)phenyl)ethanone]	> 79%	50 to 79%	> 79%	< 50%	> 79%
1.19 µM	Nc1nc(NC2Cc3ccccc3N(Cc3cccc(Cl)c3)C2)c2cn[nH]c2n1 (stereo not drawn) [Compound 126, N4-[1-(3-chlorobenzyl)-1,2,3,4-tetrahydroquinolin-3-yl]-1H-pyrazolo[3,4-d]pyrimidine-4,6-diamine]	< 50%	50 to 79%	< 50%	< 50%	50 to 79%
> 30 µM	CC(C)(C)c1ccc(CN2CC(Nc3nc(N)nc4[nH]ncc34)Cc3ccccc32)cc1 (stereo not drawn) [Compound 131, N4-[1-(4-tert-butylbenzyl)-1,2,3,4-tetrahydroquinolin-3-yl]-1H-pyrazolo[3,4-d]pyrimidine-4,6-diamine]	< 50%	< 50%	< 50%	< 50%	< 50%
> 30 µM	CC(C)(C)c1ccc(S(=O)(=O)N2CC(Nc3nc(N)nc4[nH]ncc34)Cc3ccccc32)cc1 (stereo not drawn) [Compound 33, N4-(1-(4-tert-butylphenylsulfonyl)-1,2,3,4-tetrahydroquinolin-3-yl)-1H-pyrazolo[3,4-d]pyrimidine-4,6-diamine]	50 to 79%	50 to 79%	50 to 79%	< 50%	> 79%
> 30 µM	Cc1noc(C)c1S(=O)(=O)N1CC(Nc2nc(N)nc3[nH]ncc23)Cc2ccccc21 (stereo not drawn) [Compound 15, N4-(1-(3,5-dimethylisoxazol-4-ylsulfonyl)-1,2,3,4-tetrahydroquinolin-3-yl)-1H-pyrazolo[3,4-d]pyrimidine-4,6-diamine]	> 79%	> 79%	> 79%	> 79%	> 79%
> 0.3 µM	Nc1nc(NC2Cc3ccccc3N(S(=O)(=O)c3ccc(NC(=O)Nc4ccc(Cl)c(C(F)(F)F)c4)cc3)C2)c2cn[nH]c2n1 (stereo not drawn) [Compound 222, 1-(4-(3-(6-amino-1H-pyrazolo[3,4-d]pyrimidin-4-ylamino)-3,4-dihydroquinolin-1(2H)-ylsulfonyl)phenyl)-3-(4-chloro-3-(trifluromethyl)phenyl)urea]	> 79%	> 79%	> 79%	> 79%	> 79%
0.9 µM	Nc1nc(NC2Cc3ccccc3N(Cc3ccc(F)cc3)C2)c2cn[nH]c2n1 (stereo not drawn) [Compound 6, N^4-(1-(4-fluorobenzyl)-1,2,3,4-tetrahydroquinolin-3-yl)-1H-pyrazolo[3,4-d]pyrimidine-4,6-diamine]	> 79%	> 79%	> 79%	> 79%	> 79%
1.18 µM	Nc1nc(NC2Cc3ccccc3N(S(=O)(=O)c3cccc(C(F)(F)F)c3)C2)c2cn[nH]c2n1 (stereo not drawn) [Compound 19, N4-(1-(3-(trifluoromethyl)phenylsulfonyl)-1,2,3,4-tetrahydroquinolin-3-yl)-1H-pyrazolo[3,4-d]pyrimidine-4,6-diamine]	< 50%	< 50%	< 50%	< 50%	< 50%
